Assay: Recovery of activity of antibody-latex reagent after drying on plastic (turbidimetric agglutination rate vs liquid control)
Conditions: additive concentration 4 % in the aqueous latex suspension applied to the plastic
Source text: An agglutinating polymer was made by covalent attachment of about nine molecules of a peptide antigen to polyaspartic acid (M=15,000). A latex reagent was made by adsorption of a monoclonal antibody (which binds to the peptide antigen) to small latex particles (85 nm diameter) by adsorption. […] The mixture was aspirated into a temperature controlled flow cell of a spectrophotometer with a 1 cm optical path length and rapidly heated to […]. The change of apparent absorbance at 540 nm was then recorded over 20s.
Liquid was removed by exposure to desiccant under a variety of conditions (flowing air, flowing dry N₂, or vacuum).
Additives were added to the latex suspension at the indicated concentrations prior to drying. Recovery is given in Table 2 as a percentage of the activity of a non-dried (liquid) control. […]

| SMILES | Activity (%) Ref = Liq [%] |
| --- | --- |
| OC[C@@H](O)[C@@H](O)[C@H](O)[C@H](O)CO [Mannitol] | 0 |

Same assay, conditions: additive concentration 5 % in the aqueous latex suspension applied to the plastic

| SMILES | Activity (%) Ref = Liq [%] |
| --- | --- |
| OC[C@@H](O)[C@H](O)[C@@H](O)CO [L-xylitol] | 94 |
| OC[C@@H](O)C(O)[C@H](O)CO [D-arabitol] | 101 |
| Cl.N[C@H]1C(O)O[C@H](CO)[C@@H](O)[C@@H]1O (stereo partly drawn) [D-glucosamine-HCl] | 25 |
| O=C([O-])[C@H](O)[C@@H](O)[C@H](O)[C@H](O)CO.[Na+] [35D-Gluconic Acid-Na+, D-Gluconic Acid-Na+] | 41 |
| OC[C@@H](O)[C@H](O)[C@@H](O)CO [D-xylitol] | 92 |
| OC[C@H](O)C(O)[C@@H](O)CO [L-arabitol] | 94 |
| OC[C@@H](O)[C@@H](O)[C@H](O)[C@@H](O)CO [Sorbitol] | 5 |
| OC[C@@H](O)[C@@H](O)[C@@H](O)CO [Ribitol] | 70 |

Assay: Agglutination of dried hepatitis B virus core antigen coated latex in cartridge with serum samples
Design: key: +: A positive reaction was recorded if the latex particles were agglutinated at the end of the track
Conditions: serum sample containing antibodies to hepatitis virus core antigen
Procedure: Antigen coated latex (prepared as in Example 5) (1 µL x 1.0% w/v suspended in 0·1M glycine pH 8·4 containing 0·1 6 M NaCl and 3 mM Sodium Azide either with or without 5% sucrose) was coated on the surface of piece of PETG plastic. After drying under a stream of dry nitrogen, the piece was incorporated into a cartridge by lamination of a track excised from double sided adhesive tape (4 mill thick) as described in USP 4,756,884. To test the activity of the dry reagent films, serum samples containing or not containing antibodies to hepatitis virus core antigen were applied to the sample application site and the reaction between the sample and the reagent film observed as the sample flowed over the film and the mixture was drawn down the part of the track distal from the sample application site. A positive reaction was recorded if the latex particles were agglutinated at the end of the track.

| SMILES | Agglutination + sample |
| --- | --- |
| OC[C@H]1O[C@@](CO)(O[C@H]2O[C@H](CO)[C@@H](O)[C@H](O)[C@H]2O)[C@@H](O)[C@@H]1O [Sucrose] | + |
